Consider two compounds from US4898870A, “Pyrroloquinoline quinone compounds useful as an enzyme inhibitor” (Sogo Pharmaceutical Company Limited, priority 1986, dated 1990).

As usually defined, the LD50 is the dose expected to kill half of the subjects tested. Read a high LD50 as lower toxicity. For orientation: inhibition means the change of the read-out against control, counted positive when it falls.

Series [1] is described as follows: Acute toxicity test, mouse. To be noted: in vivo. An excerpt:
(§1) Generally, pyrroloquinoline quinone (hereinafter referred to as PQQ) is a novel coenzyme different from conventional coenzyme NAD(P) or flavins for oxydation-reduction and it was initially found as a coenzyme for glucose dehydrogenase of Acinetobactor group. PQQ has a concern with the oxidizing reaction of alcohols, aldehydes, glucose and amines in an organism. Further, its growth promoting effect to a certain kind of micro-organisms,animal cells, plant cells has also been reported. Further, PQQ is also presented in the blood of mammal and, while its vitamin-like physiological activity is guessed, its biological roles has not yet been known at present. However, PQQ and its derivatives constitute the ingredients of an organism and considered to be a stable and non-toxic substance. This is apparent from the result of the acute toxicity test to mouse and rat described later.
(§2) Acute toxicity test of PQQ tri(dimethylamide)

The next series in a line: Acute toxicity test, rat. The conditions noted are these: in vivo.
From the text: as §1, §2

For series [2], the target named is T1, human placental aldose reductase (Homo sapiens, UniProt P15121).
T1 construct: An enzyme solution was prepared from human placenta; from tissue; host or cells: human placenta
Briefly: Inhibition of human placental aldose reductase. In kind it is biochemical. To be noted: human placenta enzyme. Here is the method: (§3) Specifically reaction was started by adding dl-glyceraldehyde as a substrate to a reaction solution containing rat lens homogenate, Li2 SO4, NADPH2 and inhibitor, and the enzyme activity was measured by the decrease of the optical absorption of NADPH2 (optical density: OD) at 340 nm for 5 min. The solution with no addition of the substrate was used for the blank OD. The inhibiting ratio for the aldose reductase reaction by the inhibitor was determined by the following equation: [formula]
The determination of enzyme activity was same as in Test Example 1 except enzyme source was human placenta.
(§4) To a reaction solution containing the chick lens homogenate, Li2 SO4, NADPH2 and an inhibitor, was added dlglyceraldehyde as substrate to start the reaction, and the enzymatic activity was determined by measuring the decrease in optical density (OD) of NADPH2 at 340 nm after five minutes. A solution with no substrate added was used for the blank test. The inhibition rate against the aldose reductase reaction was calculated from the following equation: [formula]
An enzyme solution was prepared from human placenta, and the inhibitory action of PQQ·2K against human placental aldose reductase was measured in the same way as in Test Example 4.
An enzyme solution was prepared from human placenta, and the inhibitory action of PQQ·3Me against human placental aldose reductase was measured in the same way as in Test Example 4.
An enzyme solution was prepared from human placenta, and the inhibitory action of PQQ·2Me.Et against human placental aldose reductase was measured in the same way as in Test Example 4.

Series [3] deals with T2, bovine lens aldose reductase (Bos taurus, UniProt P16116).
T2 construct: A homogenate of bovine lens was centrifuged for ten minutes at 20,000 rpm under cooling; from tissue; host or cells: bovine lens (20,000 rpm supernatant of homogenate)
The series can be described thus: Inhibition of bovine lens aldose reductase. It counts as biochemical. Here is the method:
as §3
The determination of enzyme activity was same as in Test Example 1 except enzyme source was bovine lens.
as §4
A homogenate of bovine lens was centrifuged for ten minutes at 20,000 rpm under cooling, the supernatant was collected as an enzyme solution, and the inhibitory action of PQQ against aldose reductase was measured in the same way as in Test Example 4.
A homogenate of bovine lens was centrifuged for ten minutes at 20,000 rpm under cooling, the supernatant was collected as an enzyme solution, and the inhibitory action of PQQ·H2 against bovine lens aldose reductase was measured in the same way as in Test Example 4.
An enzyme solution was prepared from chick lens in the same manner as in Test Example 9, and the inhibitory action of PQQ·3Me against bovine lens aldose reductase was measured in the same way as in Test Example 4.

The test system of series [4] is chick lens aldose reductase. The series can be described thus: Inhibition of chick lens aldose reductase. It counts as biochemical. Here is the method: The activity of aldose reductase was measured according to the method of Kinoshita et al. [Metabolism, 28, 462-469 (1979)] using a homogenate of chick lens.
as §4
An enzyme solution was prepared from chick lens in the same manner as in Test Example 4, and the inhibitory action of PQQ·H2 against aldose reductase was measured in the same way as in Test Example 4.
An enzyme solution was prepared from chick lens in the same manner as in Test Example 4, and the inhibitory action of PQQ·3Me against aldose reductase was measured in the same way as in Test Example 4.

The subject of series [5] is galactose-induced cataract. The series can be described thus: Galactose-induced cataract in rats. It counts as in vivo, Sprague-Dawley rats. To be noted: for cataract estimation: number at Grade A^- / cataract estimation: number at Grade A^0: 50% galactose feed; for cataract estimation: number at Grade A^-: 7th day; for cataract estimation: number at Grade A^0: 10th day. Here is the method:
Male, Sprague-Dawley rats weighing 55 to 65 grams were used as test animals in this experiment. These were divided into three groups (normal group, 50%-galactose feed group, and drug-administered group). The normal group was given a commercial powdery feed (CE-2 of Clea Japan Inc.), and the other two groups were given the above normal feed further containing 50% galactose, with free access thereto in all cases. To the drug-administered group, was further administered PQQ orally (30 mg/Kg) or intraperitonealy (20 mg/Kg) once a day throughout the course of test. The lens was extracted from the test animals on the 7th and 10th days after the start of experiment, and cataract estimation was made according to the following standards: […]

Series [6] deals with egg cataract induced by hydrocortisone. The series can be described thus: Egg cataract induced by hydrocortisone. In kind it is in vivo, White-leghorn eggs. Here is the method: White-leghorn eggs were incubated in a hatcher held at a temperature of 37° C. and a relative humidity of about 70%.
To the control and drug-administered groups, was administered at the air space 0.2 ml each of a solution of 0.12 mg hydrocortisone succinate (HC) in pure water on the 15th day after the start of incubation.
To the drug-administered group, was further injected PQQ 2 hours, or 2 and 5 hours, after HC administration.
The lens was extracted from each egg 48 hours after HC administration, and cataract estimation was made by the method of Nishigohri et al. [INVESTIGATIVE OPHTHALMOLOGY & VISUAL SCIENCE, 25, 1051 (1984)] according to the following standards: […]

Where [7] appears, read: PQQ 0.25 mg/egg × 1, HC 0.12 mg/egg, 48 hours after HC.
The mark [8] stands for this setting: PQQ 0.5 mg/egg × 1, HC 0.12 mg/egg, 48 hours after HC.
Setting [9] is: PQQ 0.5 mg/egg × 2, HC 0.12 mg/egg, 48 hours after HC.
Where [10] appears, read: PQQ 1.0 mg/egg × 1, HC 0.12 mg/egg, 48 hours after HC.

Molecules are shown by their SMILES. Some results are limits rather than exact numbers.

Consider `CN(C)C(=O)c1cc(C(=O)N(C)C)c2c(n1)C(=O)C(=O)c1cc(C(=O)N(C)C)[nH]c1-2` [PQQ tri(dimethylamide)], for which the LD50 in series [1] (oral) was above 5000 mg/kg; in series [1] (sc, subcutaneous) it was above 1500 mg/kg; in the series “Acute toxicity test, rat” (oral), above 5000 mg/kg; in the series “Acute toxicity test, rat” (sc, subcutaneous) it was above 1500 mg/kg. Further, in series [2], the IC50 stood at 830 nM.

Consider `O=C(O)c1cc(C(=O)O)c2c(n1)C(=O)C(=O)c1cc(C(=O)O)[nH]c1-2` [PQQ, pyrroloquinoline quinone], for which the IC50 in series [3] (bovine lens enzyme) is 300 nM; in series [4] (chick lens homogenate, read-out: concentration inhibiting the aldose reductase activity by 50%), 5000 nM. In addition, the IC100 in series [3] (bovine lens, read-out: concentration inhibiting the activity by 100%) came to 1 µM. In series [3] (inhibitor 10^-5 M/reaction soln., read-out: Inhibition Rate), the inhibition at 10 µM amounted to 100%. For the same compound, the inhibition at 1 µM in series [3] (inhibitor 10^-6 M/reaction soln., read-out: Inhibition Rate) was determined as 100%. In addition, the inhibition at 0.1 µM in series [3] (inhibitor 10^-7 M/reaction soln., read-out: Inhibition Rate) is 35.9%. Besides, in series [3] (inhibitor 10^-8 M/reaction soln., read-out: Inhibition Rate), the inhibition at 0.01 µM amounted to 0%. Also, in series [4] (chick lens), the “concentration inhibiting the activity by 100%” value was 10^-4 M. The “Inhibition Rate” value in series [4] (inhibitor 10^-4 M/reaction soln.) was 100%; in series [4] (inhibitor 10^-5 M/reaction soln.) it was 82.1%; in series [4] (inhibitor 10^-6 M/reaction soln.), 13.9%; in series [4] (inhibitor 10^-7 M/reaction soln.) it was 0%; in series [4] (inhibitor 10^-8 M/reaction soln.), 0%. Moreover, the “cataract estimation: number at Grade A^-” value in series [5] (20 mg/Kg i.p. once a day) was 4/4; in series [5] (30 mg/Kg p.o. once a day) it was 6/6. The “cataract estimation: number at Grade A^0” value is on record as 2/2 in series [5] (20 mg/Kg i.p. once a day) and 4/4 in series [5] (30 mg/Kg p.o. once a day). The nebula formation result in series [5] (50%-galactose feed for seven days, both p.o. and i.p.) is recorded as “no such nebula formation was observed at all”. Further, the “change of cataract grade versus 50%-galactose feed group” value in series [5] (50%-galactose feed over ten days) is “improvement by two grades”. The “effect on hydrocortisone-induced egg cataract” value in series [6] (HC 0.12 mg on 15th day of incubation) is recorded as “evidently showed an effect of curing cataract”. Further, the “cataract estimation: number at Grade I” value was 2/8 in series [6] (setting [7]), 2/10 in series [6] (setting [8]) and 2/6 in series [6] (setting [10]). In addition, the “cataract estimation: number at Grade III” value in series [6] (setting [7]) is on record as 4/8; in series [6] (setting [8]), 8/10; in series [6] (setting [9]), 2/10; in series [6] (setting [10]), 2/6. Moreover, the “cataract estimation: number at Grade IV” value in series [6] (setting [7]) was 2/8. The “cataract estimation: number at Grade II” value in series [6] (setting [9]) is 8/10; in series [6] (setting [10]), 2/6.
